Experiment [1] deals with hypogastric nerve stimulation-induced increases in intraurethral pressure and phenylephrine-induced increases in diastolic blood pressure. As to the kind of experiment: Dog in vivo blood and intraurethral pressure assay. To be noted: anesthetized mongrel dogs, i.v. bolus, increasing doses. As to the method:
The following describes an in vivo assay for measuring the relative effect of test compounds on hypogastric nerve stimulation-induced increases in intraurethral pressure and phenylephrine-induced increases in diastolic blood pressure in anesthetized dog.
Mongrel dogs (10 to 20 kg) were fasted for 12 to 18 hours and anesthetized with […] (35 mg/kg, i.v.). An endotracheal tube was inserted and thereafter the lungs were mechanically ventilated with room air. The right femoral vein was isolated and cannulated with two polyethylene cannulae, one for the administration of a continuous infusion of phenobarbital sodium (5 to 10 mg/kg/hr) and the other for bolus administration of test substances. The right femoral artery was isolated and cannulated to the abdominal aorta with a fluid filled polyethylene cannula connected to an external pressure transducer for monitoring diastolic aortic pressure (DAP). The bladder was exposed via a ventral midline abdominal incision and emptied of urine through a 22 gauge needle. The bladder was cannulated through a stab incision with a water filled balloon catheter connected to an external pressure transducer for monitoring prostatic intraurethral pressure (IUP). The right hypogastric nerve (HGN) was carefully isolated and attached to a Dastre's electrode for nerve stimulation. […]

The target of experiment [2] is T1, alpha-1B adrenoceptor (Homo sapiens, UniProt P35368).
T1 construct: expressed in transfected cells; host or cells: CHO-K1
T1 sequence (P35368 1-520): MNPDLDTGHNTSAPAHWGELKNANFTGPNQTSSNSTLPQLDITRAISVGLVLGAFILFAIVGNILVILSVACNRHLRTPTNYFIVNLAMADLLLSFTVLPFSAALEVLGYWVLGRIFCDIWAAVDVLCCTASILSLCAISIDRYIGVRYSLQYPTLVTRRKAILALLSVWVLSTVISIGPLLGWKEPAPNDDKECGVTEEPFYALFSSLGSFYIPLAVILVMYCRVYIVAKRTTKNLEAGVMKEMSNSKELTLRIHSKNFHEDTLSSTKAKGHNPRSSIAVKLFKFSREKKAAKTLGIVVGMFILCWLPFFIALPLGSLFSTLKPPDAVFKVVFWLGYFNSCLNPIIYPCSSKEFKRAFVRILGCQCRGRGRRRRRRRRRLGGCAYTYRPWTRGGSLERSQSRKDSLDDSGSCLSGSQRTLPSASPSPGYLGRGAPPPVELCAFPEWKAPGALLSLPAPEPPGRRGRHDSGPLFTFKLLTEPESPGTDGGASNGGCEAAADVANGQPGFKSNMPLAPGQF
Put plainly: [3H]prazosin binding (alpha1-adrenoceptor) assay, alpha-1B. To be noted: membranes of transfected CHO-KI cells, read-out: affinity towards the alpha-1B adrenoceptor (pKi) (converted). The method, then:
(§1) Alpha1A, alpha1B, and alpha1D adrenoceptor transfected CHO-KI cells, prepared using the methods described by Chang et al., FEBS Lett. 1998, 422:279-283, were grown to confluence in T-162 tissue culture flasks in Ham's F-12 culture medium supplemented with 10% fetal bovine serum, geneticin (150 µg/mL) and streptomycin/penicillin (30 µg/mL/30 µg/mL) at 37 °C in 7% CO2. Cells were harvested by incubating with phosphate-buffered saline (PBS) containing 30 µM EDTA for 5-10 min at 37 °C. Cells were pelleted by centrifuging at 500 x g for 5 min, and the pelleted cells were homogenized (Polytron homogenizer) in 10 vols (w/v) of 50 mM Tris, 1 mM EDTA, (homogenisation buffer, pH 7.4 at 4 °C). The homogenate was centrifuged at 45,000 x g for 20 min. The pellet was resuspended in the homogenizing buffer and rehomogenized. The resulting homogenate was centrifuged at 45,000 x g for 20 min. The pellet was resuspended in 50 mM Tris buffer (pH 7.4 at 4 °C), aliquoted, frozen, and stored at -80 °C for further use.
(§2) The membranes were thawed at room temperature and diluted in assay buffer (50 mM Tris buffer at […]) at 37 °C and homogenized using the Polytron tissue disrupter. The membranes were incubated with the radioligand ([^3H]prazosin, NEN, 0.1 - 0.5 nM) and test compound at 37 °C for 30 min. The membranes were then filtered over polyethyleneimine-treated GF/B unifilter plates using a Packard Filtermate Harvester and washed with ice-cold 50 mM Tris-HCl, 1 mM EDTA buffer (3 x 3 sec. washes). Scintillation cocktail was added to the filter plates and bound radioligand determined by liquid scintillation spectrophotometry.
(§3) For each experiment, total binding (in the absence of any test or reference compounds) and non-specific binding (10 µM phentolamine) were determined. For each sample tested, the concentration producing 50% inhibition of binding (IC50) and Hill Slope (nH) was determined using iterative non-linear curve fitting techniques with Kaleidagraph (Synergy Software) or other appropriate software. If the radioligand KD was known, the inhibition dissociation constant (K1) of each ligand was determined according to the method of Cheng and Prusoff (Cheng, Y-C. and Prusoff, W.H., Biochem. Pharmacol., 1973, 22, 3099-3108).

Experiment [3] has as its target T2, alpha-1A adrenoceptor (Homo sapiens, UniProt P35348).
T2 construct: expressed in transfected cells; host or cells: CHO-K1
T2 sequence (P35348 1-466): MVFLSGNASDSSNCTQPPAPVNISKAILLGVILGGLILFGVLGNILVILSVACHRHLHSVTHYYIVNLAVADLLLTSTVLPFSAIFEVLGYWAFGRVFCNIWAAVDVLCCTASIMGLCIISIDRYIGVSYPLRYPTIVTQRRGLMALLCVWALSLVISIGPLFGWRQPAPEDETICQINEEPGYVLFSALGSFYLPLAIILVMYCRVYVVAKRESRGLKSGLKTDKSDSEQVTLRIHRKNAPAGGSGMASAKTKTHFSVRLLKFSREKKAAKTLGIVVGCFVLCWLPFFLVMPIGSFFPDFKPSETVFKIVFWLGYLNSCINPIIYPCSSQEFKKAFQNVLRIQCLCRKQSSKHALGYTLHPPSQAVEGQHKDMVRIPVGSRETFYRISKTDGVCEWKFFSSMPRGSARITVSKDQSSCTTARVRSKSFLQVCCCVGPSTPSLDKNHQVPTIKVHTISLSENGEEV
Put plainly: [3H]prazosin binding (alpha1-adrenoceptor) assay, alpha-1A. The note with it: membranes of transfected CHO-KI cells, read-out: affinity towards the alpha-1A adrenoceptor (pKi) (converted). The method, then:
as §1, §2, §3

The target in experiment [4] is T3, alpha-1D adrenoceptor (Homo sapiens, UniProt P25100).
T3 construct: expressed in transfected cells; host or cells: CHO-K1
T3 sequence (P25100 1-572): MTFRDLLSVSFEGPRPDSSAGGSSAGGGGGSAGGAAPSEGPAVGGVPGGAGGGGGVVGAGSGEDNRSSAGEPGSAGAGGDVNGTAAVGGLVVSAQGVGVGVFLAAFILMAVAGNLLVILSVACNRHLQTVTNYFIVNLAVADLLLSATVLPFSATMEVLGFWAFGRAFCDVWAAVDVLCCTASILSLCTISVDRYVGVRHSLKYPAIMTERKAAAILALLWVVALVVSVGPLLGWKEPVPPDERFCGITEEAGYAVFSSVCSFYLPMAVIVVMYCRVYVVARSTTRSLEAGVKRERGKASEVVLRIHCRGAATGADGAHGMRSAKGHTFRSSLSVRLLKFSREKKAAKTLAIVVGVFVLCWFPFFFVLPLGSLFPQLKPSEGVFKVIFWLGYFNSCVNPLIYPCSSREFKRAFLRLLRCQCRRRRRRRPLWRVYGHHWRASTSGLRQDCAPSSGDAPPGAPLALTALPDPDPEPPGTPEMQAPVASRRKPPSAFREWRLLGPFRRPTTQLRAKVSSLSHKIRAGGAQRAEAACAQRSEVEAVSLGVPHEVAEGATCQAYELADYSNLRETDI
Put plainly: [3H]prazosin binding (alpha1-adrenoceptor) assay, alpha-1D. To be noted: membranes of transfected CHO-KI cells, read-out: affinity towards the alpha-1D adrenoceptor (pKi) (converted). As to the method:
as §1, §2, §3

Turning to `COc1cc2nc(N3CCN(C(=O)c4ccco4)CC3)nc(N)c2cc1OC` [prazosin], the “inhibition of HGN stimulation-induced increases in IUP and of phenylephrine-induced increases in DAP” value in experiment [1] was “inhibited increases in IUP and DAP in similar fashion”.
As for `COc1cc2nc(N3CCc4c(ncnc4N4CCN(C)CC4)C3)[nH]c(=O)c2cc1OC` [Compound 203, 6,7-dimethoxy-2-[4-(4-methyl-piperazin-1-yl)-5,8-dihydro-6H-pyrido[3,4-d]pyrimidin-7-yl]-3H-quinazolin-4-one], the values for the Ki in experiment [2], in experiment [3] and in experiment [4] were 8.71 nM, 4.47 nM and 575 nM, respectively.
`COc1cc2nc(N3CCc4c(cccc4N=CN(C)C)C3)[nH]c(=O)c2cc1OC` [Compound 801, N-[2-(6,7-dimethoxy-4-oxo-3,4-dihydro-quinazolin-2-yl)-1,2,3,4-tetrahydro-isoquinolin-5-yl]-N,N-dimethyl-formamidine]: the results for the Ki in experiment [2], in experiment [3] and in experiment [4] were 4.47 nM, 2.75 nM and 372 nM, respectively.
Turning to `COc1cc2[nH]c(N3CCc4cc(O)c(O)cc4C3C)nc(=O)c2cc1OC` (stereo not shown) [Compound 142, 2-(6,7-dihydroxy-1-methyl-3,4-dihydro-1H-isoquinolin-2-yl)-6,7-dimethoxy-1H-quinazolin-4-one], the figures for the Ki in experiment [2], in experiment [3] and in experiment [4] were 955 nM, 219 nM and 38900 nM, respectively.
The like results for `COc1cc2[nH]c(N3CCc4c(ncn4C4CCCCC4)C3)nc(=O)c2cc1OC` [Compound 619, 2-(1-cyclohexyl-1,4,6,7-tetrahydro-imidazo[4,5-c]pyridin-5-yl)-6,7-dimethoxy-1H-quinazolin-4-one] were, in that order, 7.59 nM, 3.72 nM and 81.3 nM.
The like results for `COc1cc2[nH]c(N3CCc4ccncc4C3)nc(=O)c2cc1OC` [Compound 147, 2-(3,4-dihydro-1H-[2,7]naphthyridin-2-yl)-6,7-dimethoxy-1H-quinazolin-4-one] were, in that order, 41.7 nM, 5.5 nM and 468 nM.
On to `COc1cc2nc(N3CCc4c(ncn4-c4ccccc4)C3)[nH]c(=O)c2cc1OC` [Compound 602, 6,7-dimethoxy-2-(1-phenyl-1,4,6,7-tetrahydro-imidazo[4,5-c]pyridin-5-yl)-3H-quinazolin-4-one], for which the figures for the Ki in experiment [2], in experiment [3] and in experiment [4] were 4.27 nM, 0.832 nM and 37.2 nM, respectively.
Taken in the same sequence, the figures for `COc1cc2nc(N3CCc4ccc(S(=O)(=O)N5CCOCC5)cc4C3)[nH]c(=O)c2cc1OC` [Compound 404, 6,7-dimethoxy-2-[7-(morpholine-4-sulfonyl)-3,4-dihydro-1H-isoquinolin-2-yl]-3H-quinazolin-4-one] were 63.1 nM, 8.13 nM and 275 nM.
On to `COc1cc2[nH]c(N3CCc4c(cccc4N4CCOCC4)C3)nc(=O)c2cc1OC` [Compound 131, 6,7-dimethoxy-2-(5-morpholin-4-yl-3,4-dihydro-1H-isoquinolin-2-yl)-1H-quinazolin-4-one], for which the Ki in experiment [2] is 39.8 nM; in experiment [3], 89.1 nM; in experiment [4], 955 nM.
Turning to `COc1cc2nc(N3CCc4c(cccc4-c4cccnc4)C3)[nH]c(=O)c2cc1OC` [Compound 112, 6,7-dimethoxy-2-(5-pyridin-3-yl-3,4-dihydro-1H-isoquinolin-2-yl)-3H-quinazolin-4-one], the Ki in experiment [2] is 2.04 nM; in experiment [3] it was 1.17 nM; in experiment [4], 132 nM.
In the case of `COc1cc2nc(N3CCc4c(ncn4-c4ccc5c(c4)OCO5)C3)[nH]c(=O)c2cc1OC` [Compound 612, 2-(1-benzo[1,3]dioxol-5-yl-1,4,6,7-tetrahydro-imidazo[4,5-c]pyridin-5-yl)-6,7-dimethoxy-3H-quinazolin-4-one], the Ki was 12.3 nM in experiment [2], 2.69 nM in experiment [3] and 178 nM in experiment [4].
The like results for `COc1cc2nc(N3CCc4c([nH]c5ccccc45)C3)[nH]c(=O)c2cc1OC` [Compound 143, 6,7-dimethoxy-2-(1,3,4,9-tetrahydro-β-carbolin-2-yl)-3H-quinazolin-4-one] were, in that order, 1.1 nM, 0.479 nM and 20.9 nM.

Source of the values: patent EP1363899B1, “QUINAZOLONE DERIVATIVES AS ALPHA 1A/B ADRENERGIC RECEPTOR ANTAGONISTS” (F.HOFFMANN-LA ROCHE AG, priority 2001, dated 2002).
